Data published in US20240391937A1, “BICYCLIC DERIVATIVE PARP INHIBITOR AND USE THEREOF” (XIZANG HAISCO PHARMACEUTICAL CO., LTD., priority 2021, published 2024).
Where two headings read alike, the source gives them in different places.

Tests used:
PARP-1 enzyme = molecular target: T1, PARP-1 enzyme (Homo sapiens, UniProt P09874); assay: PARP-1 enzyme activity test (BPS Bioscience chemiluminescence kit); type: biochemical
T1 construct: purchased BPS Bioscience
Method: PARP-1 chemical […] detection kit was purchased from BPS Bioscience. The histone solution in the kit was diluted 5× with 1×PBS, and 25 μL of the diluted histone solution was added to a microwell plate and incubated overnight at 4° C. After the incubation, the plate was washed three times with PBST (0.05% Tween-20). 100 μL of the blocking solution was added to the microwell plate and incubated at 25° C. for 90 minutes. After the incubation, the plate was washed three times with PBST. 2.5 μL of compounds at different concentrations diluted in test buffer and 12.5 μL of substrate mixed solution (1.25 μL 10× PARP test buffer; 1.25 μL 10× PARP test mixed solution; 2.5 μL Activated DNA, 7.5 μL double-distilled water) were added to the microwell plate. The PARP-1 enzyme was diluted to 2 ng/μL, 10 μL of the diluent was added to the microwell plate, and the reaction system was incubated at 25° C. for 60 minutes.
After the incubation, the plate was washed three times with PBST. Streptavidin-HRP was diluted 50× with a blocking solution, and 25 μL of the diluent was added to the microwell plate and incubated at 25° C. for 30 minutes. After the incubation, the plate was washed three times with PBST. ELISA ECL substrate A and substrate B were mixed at a ratio of 1:1 (v/v), 50 μL of the mixture was added to the microwell plate, and the chemiluminescence value was read.
The inhibition rate was calculated according to formula 1, where RLUsample was the readout of the compound well, RLUmax was the readout of the solvent control well, and RLUmin was the readout of the control well without the PARP-1 enzyme. Curve fitting was performed by four parameters (log (inhibitor) vs. response—Variable slope) using GraphPad Prism software, and the IC50 value was calculated.

MDA-MB-436 cells = assay: MDA-MB-436 cell activity test (CellTiter-Glo, 7 days); type: cell-based; details: Homo sapiens; for IC50: MDA-MB-436, 168 h, 7 days incubation; for inhibition at 10 µM: MDA-MB-436 cells, read-out: Max inh. % 10 μM
Method: Breast tumor cells MDA-MB-436 were purchased from ATCC, the culture medium was Leibovitz's L-15+10% FBS, and the cells were cultured in a CO2-free incubator at 37° C. On day 1, the cells in the exponential growth phase were collected, and the cell suspension was adjusted to 4000 cells/135 μL with the culture medium. 135 μL of the cell suspension was added to each well of a 96-well cell culture plate and incubated overnight. On day 2, compounds at different concentrations were added, and the plate was placed in the incubator and incubated for 7 days. After the incubation was completed, according to operation instructions for a CellTiter-Glo kit (Promega, G7573), 75 μL of CTG solution, which was already pre-melted and equilibrated to room temperature, was added to each well, and the mixture was uniformly mixed for 2 min using a microplate shaker. The plate was placed at room temperature for 10 min, and then […] were measured using an Envision2104 plate reader (PerkinElmer). The inhibition rate was calculated using formula (1), where RLUcompound was the readout of the drug treated group, RLUcontrol was the average value of the vehicle control group, and RLUblank was the average value of the cell-free well. The IC50 value was calculated using GraphPad Prism software.

[1] = Pharmacokinetic test in rats; type: in vivo, SD rats
Method: • 1.1 Experimental animals: male SD rats, about 220 g, 6-8 weeks old, 6 rats/compound, purchased from Chengdu Ddossy Experimental Animals Co., Ltd. • 1.2 Experimental design: on the day of the test, 6 SD rats were randomly grouped according to their body weight; the animals were fasted with water available for 12 to 14 h one day before the administration, and were fed 4 h after the administration.
Before and after the administration, 0.15 ml of blood was taken from the orbit of the animals under isoflurane anesthesia and placed in an EDTAK2 centrifuge tube. The blood was centrifuged at 5000 rpm and 4° C. for 10 min to collect plasma. The blood collection time points for the intravenous administration group and intragastric administration group were: 0, 5 min, 15 min, 30 min, 1 h, 2 h, 4 h, 6 h, 8 h, and 24 h. Before analysis and detection, all samples were stored at −80° C., and a quantitative analysis of samples was performed using LC-MS/MS.

[2] = Pharmacokinetic test in mice; type: in vivo, ICR mice
Method: • 3.1 Experimental animals: male ICR mice, 20-25 g, 18 mice/compound. purchased from Chengdu Ddossy Experimental Animals Co., Ltd. • 3.2 Experimental design: on the day of the test, 18 ICR mice were randomly grouped according to their body weights. the animals were fasted with water available for 12 to 14 h one day before the administration, and were fed 4 h after the administration. [table] Before and after the administration, 0.06 mL of blood was taken from the orbit of the animals under isoflurane anesthesia and placed in an EDTAK2 centrifuge tube. The blood was centrifuged at 5000 rpm and 4° C. for 10 min to collect plasma. The blood collection time points for the intravenous group and intragastric administration group were: 0 min, 5 min, 15 min, 30 min, 1 h, 2 h, 4 h, 6 h, 8 h, and 24 h. Before analysis and detection, all samples were stored at −80° C., and a quantitative analysis of samples was performed using LC-MS/MS.

[3] = grades, read-out: PARP-1 enzyme activity IC50
[4] = values in text, read-out: IC50 values on PARP-1
[5] = male, SD, rat, iv, rats, i.v. 2.5 mg/kg, plasma
[6] = male, ICR, mouse, iv, mice, i.v. 2.5 mg/kg, plasma

T1 sequence (P09874 whole entry): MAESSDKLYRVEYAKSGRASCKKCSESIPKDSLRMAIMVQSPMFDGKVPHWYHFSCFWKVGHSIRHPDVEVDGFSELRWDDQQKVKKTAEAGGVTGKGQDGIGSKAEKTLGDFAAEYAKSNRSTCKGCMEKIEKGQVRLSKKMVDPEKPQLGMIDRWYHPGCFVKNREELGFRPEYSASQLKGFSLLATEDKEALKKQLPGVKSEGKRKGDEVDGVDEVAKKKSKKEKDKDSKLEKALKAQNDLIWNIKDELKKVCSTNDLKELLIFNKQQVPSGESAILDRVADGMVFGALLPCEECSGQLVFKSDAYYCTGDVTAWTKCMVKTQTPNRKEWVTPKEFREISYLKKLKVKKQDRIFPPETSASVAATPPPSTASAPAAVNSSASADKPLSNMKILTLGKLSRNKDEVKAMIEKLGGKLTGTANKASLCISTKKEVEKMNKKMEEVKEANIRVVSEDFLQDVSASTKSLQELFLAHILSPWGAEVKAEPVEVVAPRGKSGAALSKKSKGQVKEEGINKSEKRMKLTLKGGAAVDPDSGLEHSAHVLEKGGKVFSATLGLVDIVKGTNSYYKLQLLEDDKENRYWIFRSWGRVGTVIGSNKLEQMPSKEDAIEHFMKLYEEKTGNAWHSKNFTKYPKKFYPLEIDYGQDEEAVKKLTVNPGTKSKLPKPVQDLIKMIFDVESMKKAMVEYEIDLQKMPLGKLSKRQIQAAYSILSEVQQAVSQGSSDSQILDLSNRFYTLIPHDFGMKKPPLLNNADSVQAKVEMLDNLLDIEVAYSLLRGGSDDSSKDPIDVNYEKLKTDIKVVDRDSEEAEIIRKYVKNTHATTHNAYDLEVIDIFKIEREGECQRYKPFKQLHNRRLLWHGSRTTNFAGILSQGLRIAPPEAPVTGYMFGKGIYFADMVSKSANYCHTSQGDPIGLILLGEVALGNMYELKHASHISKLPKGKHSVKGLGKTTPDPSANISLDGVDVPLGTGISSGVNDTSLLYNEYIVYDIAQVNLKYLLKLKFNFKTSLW

Row | IC50 (PARP-1 enzyme; [3]) [nM] | IC50 (PARP-1 enzyme; [4]) [nM] | IC50 (MDA-MB-436 cells) [nM] | pharmacokinetic characteristics in rats ([1]; conclusion in words) | AUC(0-t) [1, 5] [µg·h/mL] | clearance [1, 5] [mL/min/kg] | Vd ([1]; male, SD, rat, iv, rats, i.v. 2.5 mg/kg, plasma, read-out: Vdss) [L/kg] | AUC(0-t) ([1]; male, SD, rat, po, rats, i.g. 10 mg/kg, plasma) [µg·h/mL] | F ([1]; rats, i.g. 10 mg/kg) [%] | SMILES | inhibition at 10 µM (MDA-MB-436 cells) [%] | pharmacokinetic characteristics in mice ([2]; conclusion in words) | AUC(0-t) [2, 6] [µg·h/mL] | clearance [2, 6] [mL/min/kg] | Vd ([2]; male, ICR, mouse, iv, mice, i.v. 2.5 mg/kg, plasma, read-out: Vdss) [L/kg] | AUC(0-t) ([2]; male, ICR, mouse, po, mice, i.g. 10 mg/kg, plasma) [µg·h/mL] | F ([2]; mice, i.g. 10 mg/kg) [%]
1 | ≤ 1 | 0.74 | 5.6 | – | – | – | – | – | – | O=C(NC1CC1)c1ccc(N2CCN(Cc3cnc4cc(C5CC5)c(=O)[nH]c4c3)CC2)cn1 [Compound 5, N-cyclopropyl-5-(4-((7-cyclopropyl-6-oxo-5,6-dihydro-1,5-naphthyridin-3-yl)methyl)piperazin-1-yl)picolinamide] | 80.7 | – | – | – | – | – | –
2 | ≤ 1 | 0.9 | 5.1 | good pharmacokinetic characteristics | 70.8 | 0.585 | 0.169 | 206 | 72.6 | CNC(=O)c1ccc(N2CCN(Cc3cnc4cc(C5CC5)c(=O)[nH]c4c3)CC2)cn1 [Compound 2, 5-(4-((7-cyclopropyl-6-oxo-5,6-dihydro-1,5-naphthyridin-3-yl)methyl)piperazin-1-yl)-N-methylpicolinamide] | 86.3 | – | – | – | – | – | –
3 | ≤ 1 | 0.54 | 2.8 | – | – | – | – | – | – | Cn1cc(NC(=O)c2ccc(N3CCN(Cc4cnc5cc(C6CC6)c(=O)[nH]c5c4)CC3)cn2)cn1 [Compound 6, 5-(4-((7-cyclopropyl-6-oxo-5,6-dihydro-1,5-naphthyridin-3-yl)methyl)piperazin-1-yl)-N-(1-methyl-1H-pyrazol-4-yl)picolinamide] | 85.4 | – | – | – | – | – | –
4 | – | 1.2 | 1.1 | – | – | – | – | – | – | O=c1[nH]c2cc(CN3CCN(c4cn5cc(C(F)(F)F)nc5cn4)CC3)cnc2cc1C1CC1 [Compound 8, 3-cyclopropyl-7-((4-(2-(trifluoromethyl)imidazo[1,2-a]pyrazin-6-yl)piperazin-1-yl)methyl)-1,5-naphthyridin-2(1H)-one] | 97.4 | – | – | – | – | – | –

Row | SMILES | IC50 (PARP-1 enzyme; [3]) [nM] | IC50 (PARP-1 enzyme; [4]) [nM] | IC50 (MDA-MB-436 cells) [nM] | pharmacokinetic characteristics in rats ([1]; conclusion in words) | AUC(0-t) [1, 5] [µg·h/mL] | clearance [1, 5] [mL/min/kg] | Vd ([1]; male, SD, rat, iv, rats, i.v. 2.5 mg/kg, plasma, read-out: Vdss) [L/kg] | AUC(0-t) ([1]; male, SD, rat, po, rats, i.g. 10 mg/kg, plasma) [µg·h/mL] | F ([1]; rats, i.g. 10 mg/kg) [%] | inhibition at 10 µM (MDA-MB-436 cells) [%] | pharmacokinetic characteristics in mice ([2]; conclusion in words) | AUC(0-t) [2, 6] [µg·h/mL] | clearance [2, 6] [mL/min/kg] | Vd ([2]; male, ICR, mouse, iv, mice, i.v. 2.5 mg/kg, plasma, read-out: Vdss) [L/kg] | AUC(0-t) ([2]; male, ICR, mouse, po, mice, i.g. 10 mg/kg, plasma) [µg·h/mL] | F ([2]; mice, i.g. 10 mg/kg) [%]
5 | O=C(NC1CC1)c1ccc(C2=CCN(Cc3cnc4cc(C5CC5)c(=O)[nH]c4c3)CC2)cn1 [Compound 3, N-cyclopropyl-1′-((7-cyclopropyl-6-oxo-5,6-dihydro-1,5-naphthyridin-3-yl)methyl)-1′,2′,3′,6′-tetrahydro-[3,4′-bipyridine]-6-carboxamide] | ≤ 1 | 0.6 | 4.5 | – | – | – | – | – | – | 82.1 | good pharmacokinetic characteristics | 108 | 0.346 | 0.207 | 707 | 164
